Results on 3 compounds are retold here after ChEMBL document CHEMBL4052759, “Discovery of DS79182026: A potent orally active hepcidin production inhibitor” (Bioorg Med Chem Lett, 2017).

In series [1] the target is Hepatocyte growth factor receptor (Homo sapiens) (UniProt P08581). In words: Inhibition of MET (unknown origin) at 0.49 uM relative to control.
Series [2] deals with Macrophage-stimulating protein receptor (Homo sapiens) (UniProt Q04912). In words: Inhibition of MST1R (unknown origin) at 0.49 uM relative to control.
Series [3] addresses Tyrosine-protein kinase BTK (Homo sapiens) (UniProt Q06187). The experiment in a line: Inhibition of BTK (unknown origin) at 0.49 uM relative to control.
Series [4] has as its target RAF proto-oncogene serine/threonine-protein kinase (Homo sapiens) (UniProt P04049). The experiment in a line: Inhibition of c-Raf (unknown origin) at 0.49 uM relative to control.
Series [5] deals with Casein kinase I isoform gamma-2 (Homo sapiens) (UniProt P78368). In words: Inhibition of Casein kinase 1g2 (unknown origin) at 0.49 uM relative to control.
For series [6], the target named is Ephrin type-A receptor 1 (Homo sapiens) (UniProt P21709). The experiment in a line: Inhibition of EPHA1 (unknown origin) at 0.49 uM relative to control.
Series [7] deals with T1, Serine/threonine-protein kinase Chk1 (Homo sapiens) (UniProt O14757).
T1 sequence (whole entry): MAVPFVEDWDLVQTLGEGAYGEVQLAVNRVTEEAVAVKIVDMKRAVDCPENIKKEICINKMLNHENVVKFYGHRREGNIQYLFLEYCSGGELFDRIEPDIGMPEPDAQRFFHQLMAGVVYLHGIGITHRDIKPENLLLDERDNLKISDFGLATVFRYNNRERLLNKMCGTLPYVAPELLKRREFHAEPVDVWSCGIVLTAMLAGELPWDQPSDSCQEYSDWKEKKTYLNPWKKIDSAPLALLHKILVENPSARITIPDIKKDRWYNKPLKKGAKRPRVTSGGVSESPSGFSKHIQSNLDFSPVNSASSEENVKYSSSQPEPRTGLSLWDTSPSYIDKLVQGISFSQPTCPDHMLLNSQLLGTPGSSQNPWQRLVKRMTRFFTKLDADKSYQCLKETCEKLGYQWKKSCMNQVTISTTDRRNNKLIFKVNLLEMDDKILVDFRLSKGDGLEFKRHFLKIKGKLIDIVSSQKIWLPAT
In words: Inhibition of CHK1 (unknown origin) at 0.49 uM relative to control.

The target in series [8] is Mitogen-activated protein kinase kinase kinase kinase 4 (Homo sapiens) (UniProt O95819). The experiment in a line: Inhibition of HGK (unknown origin) at 0.49 uM relative to control.
Series [9] has as its target MAP kinase-activated protein kinase 2 (Homo sapiens) (UniProt P49137). In words: Inhibition of MAPKAPK2 (unknown origin) at 0.49 uM relative to control.
In series [10] the target is Mast/stem cell growth factor receptor Kit (Homo sapiens) (UniProt P10721). The experiment in a line: Inhibition of KIT (unknown origin) at 0.49 uM relative to control.
Series [11] addresses Ribosomal protein S6 kinase alpha-5 (Homo sapiens) (UniProt O75582). In words: Inhibition of MSK1 (unknown origin) at 0.078 uM relative to control.
Series [12] can be described thus: Volume of distribution in C57BL/6J mouse at 30 mg/kg, iv by LC-MS/MS analysis. The format is ADME, organism-based. The note with it: in vivo.
The target of series [13] is Casein kinase I isoform gamma-3 (Homo sapiens) (UniProt Q9Y6M4). In words: Inhibition of CSNK1G3 (unknown origin) at 0.45 uM relative to control.
In series [14] the target is Ephrin type-A receptor 1 (Homo sapiens) (UniProt P21709). The experiment in a line: Inhibition of EPHA1 (unknown origin) at 0.45 uM relative to control.
Series [15] has as its target Fibroblast growth factor receptor 2 (Homo sapiens) (UniProt P21802). In words: Inhibition of FGFR2 (unknown origin) at 0.45 uM relative to control.
Series [16] has as its target Insulin-like growth factor 1 receptor (Homo sapiens) (UniProt P08069). In words: Inhibition of IGF1R (unknown origin) at 0.45 uM relative to control.
The target in series [17] is Cytoplasmic tyrosine-protein kinase BMX (Homo sapiens) (UniProt P51813). In words: Inhibition of BMX (unknown origin) at 0.45 uM relative to control.
Series [18] has as its target Death-associated protein kinase 1 (Homo sapiens) (UniProt P53355). In words: Inhibition of DAPK1 (unknown origin) at 0.45 uM relative to control.
The target in series [19] is Serine/threonine-protein kinase D1 (Homo sapiens) (UniProt Q15139). In words: Inhibition of PKD1 (unknown origin) at 0.45 uM relative to control.
Series [20] concerns the target MAP kinase-activated protein kinase 2 (Homo sapiens) (UniProt P49137). The experiment in a line: Inhibition of MAPKAPK2 (unknown origin) at 0.45 uM relative to control.
Series [21] has as its target Serine/threonine-protein kinase MARK1 (Homo sapiens) (UniProt Q9P0L2). The experiment in a line: Inhibition of MARK1 (unknown origin) at 0.45 uM relative to control.
The target in series [22] is Mitogen-activated protein kinase kinase kinase kinase 5 (Homo sapiens) (UniProt Q9Y4K4). In words: Inhibition of KHS1 (unknown origin) at 0.45 uM relative to control.
Series [23] addresses Fibroblast growth factor receptor 1 (Homo sapiens) (UniProt P11362). In words: Inhibition of FGFR1 (unknown origin) at 0.45 uM relative to control.
Series [24] addresses Protein kinase C beta (Homo sapiens) (UniProt P05771). The experiment in a line: Inhibition of PKC-beta1 (unknown origin) at 0.45 uM relative to control.
Series [25] has as its target BDNF/NT-3 growth factors receptor (Homo sapiens) (UniProt Q16620). The experiment in a line: Inhibition of NTRK2 (unknown origin) at 0.45 uM relative to control.
Series [26] has as its system Leucine-rich repeat serine/threonine-protein kinase 2 (Homo sapiens), Q5S007 [G2019S]. The experiment in a line: Inhibition of LRRK2 G2019S mutant (unknown origin) at 0.45 uM relative to control.
Series [27] addresses Glycogen synthase kinase-3 alpha (Homo sapiens) (UniProt P49840). In words: Inhibition of GSK3-alpha (unknown origin) at 0.45 uM relative to control.
The target in series [28] is T2, Calcium/calmodulin-dependent protein kinase type IV (Homo sapiens) (UniProt Q16566).
T2 sequence (whole entry): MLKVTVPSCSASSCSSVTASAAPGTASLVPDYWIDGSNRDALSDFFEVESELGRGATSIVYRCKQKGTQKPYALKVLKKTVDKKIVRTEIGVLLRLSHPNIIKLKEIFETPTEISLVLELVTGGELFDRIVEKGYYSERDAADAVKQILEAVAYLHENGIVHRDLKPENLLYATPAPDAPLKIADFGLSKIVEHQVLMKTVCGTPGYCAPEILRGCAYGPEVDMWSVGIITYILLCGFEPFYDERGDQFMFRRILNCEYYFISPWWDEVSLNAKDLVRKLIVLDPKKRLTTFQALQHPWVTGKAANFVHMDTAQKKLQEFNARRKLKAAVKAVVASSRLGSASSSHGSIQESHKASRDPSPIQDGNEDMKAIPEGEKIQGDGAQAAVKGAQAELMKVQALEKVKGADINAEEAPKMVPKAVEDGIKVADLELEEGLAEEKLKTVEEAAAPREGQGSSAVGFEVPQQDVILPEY
The experiment in a line: Inhibition of CAMK4 (unknown origin) at 0.45 uM relative to control.

Structures are written as SMILES.

As a reminder, the inhibition is the relative decrease from the control value, in per cent. For `Cc1[nH]nc(C2CC2)c1-c1ccc2c(NC(=O)C3CC3)noc2c1`, the inhibition in [1] was 7.3%; in series [2], -3%; in series [3] it was 0.3%; in series [4] it was 1%; in series [5], 1%; in series [6] it was 3.3%. The inhibition in series [7] was 0%; in series [8], 4%; in series [9], 2.7%; in [10], 1%.
In general, Vd refers to the apparent volume that relates the amount in the body to the concentration in plasma or blood. Higher therefore signals extensive tissue distribution. On to `COC(=O)Nc1noc2cc(-c3c(-c4ccccn4)n[nH]c3C)ccc12`, for which the inhibition in series [11] is -5.7%. This compound had a distribution volume (Vd) in [12] of 0.91 L/kg.
Take `Cc1n[nH]c(C)c1-c1ccc2c(NC(=O)c3ccc(N4CCN(C)CC4)cc3)n[nH]c2c1`: the inhibition in [13] was -0.7%; in series [14], 21%; in series [15] it was 21.7%; in [16], 3%; in series [17], 4.7%; in series [18], -1.3%. Besides, the inhibition came to 1.3% in series [19]; 0.3% in series [20]; 36.7% in [21]; 85% in series [22]; 35% in series [23]; 7.7% in [24]. The inhibition in series [25] is 85.7%; in [26] it was 18.7%; in series [27], -1%; in [28], 0%.
